Results reported in BindingDB's records for doi:10.1021/jm00160a026 (1986).
pIC50: −log10 of the molar value.

Target: Angiotensin-converting enzyme (Cavia porcellus)
Experiment: Inhibition of guinea pig angiotensin I converting enzyme

Structure (SMILES) | pIC50
CC(=O)SCC(C)C(=O)N1CCc2ccccc2C1 (centres undefined) | 4.31
CC(NC(CCc1ccccc1)C(=O)O)C(=O)N1CCc2ccccc2C1C(=O)O (centres undefined) | 8.24
CCOC(=O)C(CCc1ccccc1)N(C)C(C)C(=O)N1Cc2ccccc2CC1C(=O)O (centres undefined) | < 5.00
CC(NC(CCc1ccccc1)C(=O)O)C(=O)N1Cc2ccccc2C1C(=O)O (centres undefined) | 8.51
CC(=O)SCCC(=O)N1Cc2ccccc2C1C(=O)O (centres undefined) | 4.66
CCOC(=O)C(CCc1ccccc1)NC(C)C(=O)N1Cc2cc(OC)c(OC)cc2CC1C(=O)OCC (centres undefined) | 6.28
CCOC(=O)C(CCc1ccccc1)NC(C)C(=O)N1Cc2cc(OC)c(OC)cc2CC1C(=O)OCc1ccccc1 (centres undefined) | 6.52
O=C(O)C1c2ccccc2CN1C(=O)CCS (centres undefined) | 4.24
CC(CS)C(=O)N1CCc2ccccc2C1 (centres undefined) | 4.32
CCOC(=O)C(CCc1ccccc1)NC(C)C(=O)N1Cc2ccccc2CC1C(=O)OCC (centres undefined) | 6.36
CCOC(=O)[C@H](CCc1ccccc1)N[C@@H](C)C(=O)N1Cc2ccccc2[C@@H]1C(=O)O | < 6.00
CCOC(=O)[C@H](CCc1ccccc1)N[C@@H](C)C(=O)N1Cc2ccccc2[C@H]1C(=O)O | 7.36
CC(=O)SCC(C)C(=O)N1Cc2ccccc2C1C(=O)O (mixture of isomers) | 4.62
CC(=O)SCC(C)C(=O)N1Cc2ccccc2CC1C(=O)O (racemic) | 6.89
